Assay results from patent publication US12479847B2 (DANA-FARBER CANCER INSTITUTE, INC., priority 2019, dated 2025).

What was measured:
Test in all cases: KINOMEscan (ScanMAX) kinase profiling
Type in all cases: binding
[1] = molecular target: T1, panel of 468 kinases (Homo sapiens, UniProt Q9H2K8); details: TAOK3; 1 μM; read-out: % control
T1 construct: purchased KINOMEscan (ScanMAX) service
T1 sequence (Q9H2K8 1-898): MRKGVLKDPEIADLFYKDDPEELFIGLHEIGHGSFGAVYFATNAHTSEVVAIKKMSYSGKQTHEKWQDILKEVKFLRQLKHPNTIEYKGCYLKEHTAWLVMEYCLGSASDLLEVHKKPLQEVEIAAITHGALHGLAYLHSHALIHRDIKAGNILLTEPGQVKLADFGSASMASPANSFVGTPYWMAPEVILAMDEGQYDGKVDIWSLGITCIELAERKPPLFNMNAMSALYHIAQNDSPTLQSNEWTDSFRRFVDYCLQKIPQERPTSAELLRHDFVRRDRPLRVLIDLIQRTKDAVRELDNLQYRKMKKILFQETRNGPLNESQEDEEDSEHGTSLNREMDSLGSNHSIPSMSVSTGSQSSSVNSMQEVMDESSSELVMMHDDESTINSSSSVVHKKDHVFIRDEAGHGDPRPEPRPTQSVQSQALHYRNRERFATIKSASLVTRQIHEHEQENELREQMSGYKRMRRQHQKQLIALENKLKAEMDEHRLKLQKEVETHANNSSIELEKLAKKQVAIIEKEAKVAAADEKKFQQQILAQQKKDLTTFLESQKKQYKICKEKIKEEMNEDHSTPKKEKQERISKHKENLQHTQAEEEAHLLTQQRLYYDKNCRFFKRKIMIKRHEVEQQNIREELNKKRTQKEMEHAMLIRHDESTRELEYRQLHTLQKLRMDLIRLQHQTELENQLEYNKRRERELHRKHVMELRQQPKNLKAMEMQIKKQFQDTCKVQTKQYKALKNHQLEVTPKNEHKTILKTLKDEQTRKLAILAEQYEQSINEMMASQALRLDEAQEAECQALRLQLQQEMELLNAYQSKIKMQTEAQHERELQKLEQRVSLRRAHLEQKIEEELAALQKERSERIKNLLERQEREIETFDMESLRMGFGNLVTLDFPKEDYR

[2] = molecular target: T2, panel of 468 kinases (Homo sapiens, UniProt P00533, T790M); details: EGFR(T790M); 1 μM; read-out: % control
T2 construct: purchased KINOMEscan (ScanMAX) service
T2 sequence (P00533 25-1210 T790M): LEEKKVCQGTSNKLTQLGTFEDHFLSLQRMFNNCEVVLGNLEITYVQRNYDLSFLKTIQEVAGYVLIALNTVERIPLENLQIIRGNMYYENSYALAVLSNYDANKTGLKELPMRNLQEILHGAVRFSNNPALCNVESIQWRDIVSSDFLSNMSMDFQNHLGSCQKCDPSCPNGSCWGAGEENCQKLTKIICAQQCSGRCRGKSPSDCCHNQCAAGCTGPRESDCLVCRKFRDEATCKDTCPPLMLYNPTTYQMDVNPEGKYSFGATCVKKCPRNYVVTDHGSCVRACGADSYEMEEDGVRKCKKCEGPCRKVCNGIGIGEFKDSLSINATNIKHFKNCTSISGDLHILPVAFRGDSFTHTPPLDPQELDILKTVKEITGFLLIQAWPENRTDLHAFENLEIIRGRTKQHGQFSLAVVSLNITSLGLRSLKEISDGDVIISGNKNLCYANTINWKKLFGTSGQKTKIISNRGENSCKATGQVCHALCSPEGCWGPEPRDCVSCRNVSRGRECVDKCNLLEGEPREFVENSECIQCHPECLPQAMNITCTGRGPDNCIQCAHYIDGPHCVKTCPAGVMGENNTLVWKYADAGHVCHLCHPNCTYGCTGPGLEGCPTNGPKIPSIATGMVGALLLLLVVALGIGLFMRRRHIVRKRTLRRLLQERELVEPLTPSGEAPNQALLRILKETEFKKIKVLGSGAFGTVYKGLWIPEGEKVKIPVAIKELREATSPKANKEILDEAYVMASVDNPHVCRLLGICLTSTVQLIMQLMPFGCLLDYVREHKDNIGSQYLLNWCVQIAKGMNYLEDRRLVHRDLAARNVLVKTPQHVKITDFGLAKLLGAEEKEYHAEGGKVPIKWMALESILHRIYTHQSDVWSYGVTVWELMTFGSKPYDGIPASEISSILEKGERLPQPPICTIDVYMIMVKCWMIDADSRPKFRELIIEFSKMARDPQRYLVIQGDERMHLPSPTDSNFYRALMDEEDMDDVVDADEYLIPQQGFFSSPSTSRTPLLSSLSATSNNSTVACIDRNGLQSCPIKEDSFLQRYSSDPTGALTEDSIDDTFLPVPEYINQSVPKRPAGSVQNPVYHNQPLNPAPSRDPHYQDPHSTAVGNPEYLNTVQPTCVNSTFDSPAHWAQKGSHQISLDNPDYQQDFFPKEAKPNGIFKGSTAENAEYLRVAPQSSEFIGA

[3] = molecular target: T3, panel of 468 kinases (Homo sapiens, UniProt P49840); details: GSK3A; 1 μM; read-out: % control
T3 construct: purchased KINOMEscan (ScanMAX) service
T3 sequence (P49840 whole entry): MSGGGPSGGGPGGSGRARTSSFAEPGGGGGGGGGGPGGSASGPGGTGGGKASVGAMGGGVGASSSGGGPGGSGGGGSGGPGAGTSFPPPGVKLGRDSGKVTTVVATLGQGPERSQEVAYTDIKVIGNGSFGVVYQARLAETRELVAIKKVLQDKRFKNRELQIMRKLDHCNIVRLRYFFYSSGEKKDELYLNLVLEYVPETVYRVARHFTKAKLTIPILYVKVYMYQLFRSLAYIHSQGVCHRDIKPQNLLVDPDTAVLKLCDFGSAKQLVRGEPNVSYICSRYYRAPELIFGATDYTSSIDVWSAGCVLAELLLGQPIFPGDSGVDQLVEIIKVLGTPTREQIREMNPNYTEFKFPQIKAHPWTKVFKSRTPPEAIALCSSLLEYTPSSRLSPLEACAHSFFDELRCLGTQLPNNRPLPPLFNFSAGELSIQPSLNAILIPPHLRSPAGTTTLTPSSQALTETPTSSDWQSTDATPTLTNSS

[4] = molecular target: T4, panel of 468 kinases (Homo sapiens, UniProt P36888, R834Q); details: FLT3(R834Q); 1 μM; read-out: % control
T4 construct: purchased KINOMEscan (ScanMAX) service
T4 sequence (P36888 27-993 R834Q): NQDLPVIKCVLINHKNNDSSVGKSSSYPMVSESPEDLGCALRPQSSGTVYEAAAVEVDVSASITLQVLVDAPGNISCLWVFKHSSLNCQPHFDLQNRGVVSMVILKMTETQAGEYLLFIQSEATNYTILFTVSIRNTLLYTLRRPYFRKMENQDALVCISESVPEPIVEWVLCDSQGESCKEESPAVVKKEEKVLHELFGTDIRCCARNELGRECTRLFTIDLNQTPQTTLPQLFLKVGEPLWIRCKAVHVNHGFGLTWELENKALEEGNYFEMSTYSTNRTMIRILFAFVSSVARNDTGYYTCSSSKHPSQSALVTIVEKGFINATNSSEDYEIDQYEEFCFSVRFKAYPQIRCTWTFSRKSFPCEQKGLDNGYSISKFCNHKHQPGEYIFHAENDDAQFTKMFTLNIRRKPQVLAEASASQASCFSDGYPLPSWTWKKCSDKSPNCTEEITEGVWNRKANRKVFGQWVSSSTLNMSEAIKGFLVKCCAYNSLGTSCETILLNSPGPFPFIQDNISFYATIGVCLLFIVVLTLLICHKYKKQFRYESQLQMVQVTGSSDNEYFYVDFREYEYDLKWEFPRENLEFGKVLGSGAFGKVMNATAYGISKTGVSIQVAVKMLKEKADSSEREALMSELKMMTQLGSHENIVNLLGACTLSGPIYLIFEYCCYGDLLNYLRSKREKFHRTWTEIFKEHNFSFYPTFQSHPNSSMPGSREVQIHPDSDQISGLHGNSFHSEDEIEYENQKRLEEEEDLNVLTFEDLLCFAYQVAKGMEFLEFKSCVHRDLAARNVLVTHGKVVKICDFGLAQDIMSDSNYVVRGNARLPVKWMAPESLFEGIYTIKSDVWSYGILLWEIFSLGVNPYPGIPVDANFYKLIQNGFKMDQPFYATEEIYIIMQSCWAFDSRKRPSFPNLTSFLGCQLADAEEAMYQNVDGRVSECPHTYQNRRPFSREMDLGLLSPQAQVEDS

| SMILES | remaining binding at 1 µM [1] [%] | remaining binding at 1 µM [2] [%] | remaining binding at 1 µM [3] [%] | remaining binding at 1 µM [4] [%] |
| --- | --- | --- | --- | --- |
| CNc1nc(Nc2ccc(S(=O)(=O)N3CCC(N4CCOCC4)CC3)cc2OC)nc2[nH]cc(Cl)c12 [Compound 12, 5-chloro-N2-(2-methoxy-4-((4-morpholinopiperidin-1-yl)sulfonyl)phenyl)-N4-methyl-7H-pyrrolo[2,3-d]pyrimidine-2,4-diamine] | 85 | 75 | 91 | 92 |
| CNc1nc(Nc2ccc(P3(=O)CCN(C4CCOCC4)CC3)cc2OC)nc2[nH]cc(Cl)c12 [Compound 77, 4-(4-((5-chloro-4-(methylamino)-7H-pyrrolo[2,3-d]pyrimidin-2-yl)amino)-3-methoxyphenyl)-1-(tetrahydro-2H-pyran-4-yl)-1,4-azaphosphinane 4-oxide] | 84 | 55 | 90 | 82 |
| CNc1nc(Nc2ccc(C(=O)N3CCC(N4CCOCC4)CC3)c3c2OCO3)nc2[nH]cc(Cl)c12 [Compound 75, (7-((5-chloro-4-(methylamino)-7H-pyrrolo[2,3-d]pyrimidin-2-yl)amino)benzo[d][1,3]dioxol-4-yl)(4-morpholinopiperidin-1-yl)methanone] | 83 | 63 | 87 | 73 |
